From EPA's aquatic toxicity sets

System: Tetrahymena pyriformis
Assay: 48 h IGC50 (-log10 mol/L); higher = more toxic

Structure (SMILES)	48 h IGC50 (-log10 mol/L)
O=[N+]([O-])c1ccc(Cl)cc1Cl	3.99
CCOC(=O)CCCCCC(=O)OCC	3.41
CC#CC(=O)OCC	3.51
COC(=O)C(C)(C)C	1.72
CCS(=O)(=O)c1ccccc1	2.21
Oc1cc(O)c(Cl)cc1Cl	3.97
COc1ccc([N+](=O)[O-])cc1	3.54
CCOC(=O)c1ccc(O)cc1	3.57
CCOC(=O)C(C)Cl (centres undefined)	2.57
CCCCOC(=O)CC	3.17
OCCc1ccc(Cl)cc1	3.32
N#CC(Cl)(Cl)Cl	4.88
N#CC(=O)c1ccccc1	3.31
O=[N+]([O-])c1ccc(Br)cc1	3.38
CC(C)(C)N	2.1
NC(=O)c1cccs1	2.03
O=C(c1ccccc1)c1cccc(Cl)c1	4.55
CCc1ccc(Br)cc1	3.67
COC(=O)CCC(=O)OC	1.94
Oc1cccc(O)c1O	3.85
CCCCCCCC=CCO	4.13
CCCNC(C)=O	1.5
O=[N+]([O-])c1cc([N+](=O)[O-])c(F)cc1F	5.08
O=Cc1c(O)ccc2ccccc12	4.32
C/C=C/c1ccc(O)c(OC)c1	3.75
O=[N+]([O-])c1ccc(O)c(Cl)c1	4.18
CCOC(=O)CC(C)C	2.28

Structure (SMILES)	48 h IGC50 (-log10 mol/L)
Oc1ccccc1Cc1ccccc1	4.31
CC/C=C/CC(=O)O	2.78
CC(C)c1cccc(O)c1	3.61
Cc1ccc(O)c([N+](=O)[O-])c1	3.57
COC(=O)CCl	3.89
Cc1cc([N+](=O)[O-])ccc1Br	4.16
CCCCCCOC=O	2.62
OCc1ccccc1Br	3.1
CCCCCCC=O	3
CCCCC(C)O (centres undefined)	2.07
Cc1ccc(C#N)cc1	2.9
O=Cc1ccc(O)c(O)c1	3.11
CCCCCOc1ccc(O)cc1	4.36
CCC(=O)Cc1ccccc1	2.79
CCCSc1ccccc1	3.86
OCc1cccc2ccccc12	3.13
C#CC(O)C(C)CCC (centres undefined)	3.74
OCCCCCc1ccccc1	3.42
CC(=O)c1cccs1	2.41
Nc1c([N+](=O)[O-])ccc2ncccc12	3.92
CCCCCC(=O)Cl	3.34
CCCC/C=C/CO	3.04
COC(=O)c1cccc(O)c1	2.95
C=CCCCO	1.78
C=C(C)C#N	1.35
C=CCOC(=O)CCC	2.37
CCC(Cl)C(=O)O (centres undefined)	2.65

Structure (SMILES)	48 h IGC50 (-log10 mol/L)
c1cn[nH]c1	1.29
CCCCCCCCC(O)CCC (centres undefined)	4.65
Cc1cc(O)c([N+](=O)[O-])cc1Cl	4.63
CCCCCc1ccc(O)cc1	4.58
Oc1c(F)c(F)c(O)c(F)c1F	4.84
O=C(O)c1cc(Cl)ccc1O	2.6
CC(C)(C)C#N	1.68
O=C(O)CCCCCCCCCCC(=O)O	2.91
C=CC(=O)N(C)C	1.76
O=[N+]([O-])c1cc(C(F)(F)F)ccc1Cl	3.85
COC(=O)CCCCCCC(=O)OC	3.3
CCC(Cl)C(N)=O (centres undefined)	1.78
O=[N+]([O-])c1cnc(Cl)c([N+](=O)[O-])c1	5.64
C=CCCC(C)=O	1.86
O=Cc1cc2ccccc2c2ccccc12	4.71
O=C1C=Cc2ccccc2C1=O	6.2
CC(C)N	2.14
c1ccc(Cc2cccnc2)cc1	3.68
N#CCCCCC#N	1.46
CCc1ccccc1O	3.16
NC(=O)Oc1ccccc1	2.61
Cc1nccnc1C	2.13
CCOC(=O)Cc1cccnc1	2.06
O=C1C=C(c2ccccc2)C(=O)C=C1c1ccccc1	4.48
CCCC(CO)CCC	3.13
